According to patent publication US20130078224A1, “INDUCTION/MONITORING OF ARTERIOGENESIS USING SDF1 AND PDGFB OR INHIBITION OF PHD2” (LIFE SCIENCES RESEARCH PARTNERS VZW, priority 2010, published 2013):

Assays:
NF-κB [1] = assay: NF-κB-responsive firefly luciferase reporter assay in bone marrow-derived macrophages; format: cell-based, mice; conditions: PHD2 haplodeficient vs WT macrophages
Protocol: Transduction and Transfection of Bone Marrow-Derived Macrophages and Lung Endothelial Cells: To express an inducible NF-κB responsive firefly luciferase reporter, commercially available lentiviral vector particles (LV) were used (Cignal Lenti NF-κB Reporter; SABiosciences). 2.5×10^5 bone marrow-derived macrophages and 10^5 primary lung endothelial cells (isolated as previously described (Mazzone et al., 2009, see above)) were seeded in a 24-well plate in DMEM 10% FBS or M199 20% FBS for eight hours. Cells were transduced with 10^8 TU/ml. Eight hours after transduction, the medium wash was replaced. After 48 hours, cells were stimulated with TNFα (20 ng/mL) for eight hours and the same amount of protein extract was read in a luminometer. For PHD3 silencing, siRNA oligonucleotides were designed using the Invitrogen online siRNA design tool (world wide web at maidesigner.invitrogen.com). The following sequences (sense strands) and target positions were used: PHD3 siRNA: 5′-[…]-3′ (SEQ ID NO:1); scramble siRNA:5′-[…]-3′ (SEQ ID NO:2). In brief, one day after the transduction of macrophages with LV, cells were transfected using Lipofectamine 2000 (Invitrogen) according to the manufacturer's instructions. Preparation of the oligonucleotide-Lipofectamine 2000 complexes was done as followed: 25 pmol siRNA oligonucleotide (stock: 20 μM) was diluted in 50 μl Opti-MEM I reduced serum medium. Lipofectamine 2000 (1.5 μl) was diluted in 50 μl Opti-MEM I reduced serum medium and incubated for five minutes at room temperature. siRNA oligonucleotides were gently mixed with Lipofectamine 2000 and allowed to incubate at room temperature for twenty minutes to form complexes. Just before transfection, the cell culture medium was removed and cells were rinsed twice with serum-free Opti-MEM I medium. The Lipofectamine 2000-siRNA oligonucleotide complexes were added to each well in 400 μl of serum-free Opti-MEM medium for five hours. Afterwards, cells were incubated in complete medium for 48 hours at 37° C. in a CO2 incubator and assayed for gene knockdown (qRT-PCR) and luciferase activity. To assess if the increased NFkB activity observed in PHD2^+/− macrophages was dependent on the hydroxylase activity of PHD2, 48 hours before transduction, 4×10^6 bone marrow-derived macrophages were resuspended in 240 μl of Opti-MEM and were electroporated (250 V, 950 uF, ∝ Ω) with 7 μg of plasmids expressing a wild-type PHD2 (PHD2^wt) or a PHD2 containing a mutation at the catalytic site (PHD2^H313A).

NF-κB [2] = assay: NF-κB-responsive luciferase reporter assay in primary lung endothelial cells; format: cell-based, mice; conditions: WT and PHD2+/- ECs, TNF-α 20 ng/mL, eight hours
Protocol: Transduction and Transfection of Bone Marrow-Derived Macrophages and Lung Endothelial Cells: To express an inducible NF-κB responsive firefly luciferase reporter, commercially available lentiviral vector particles (LV) were used (Cignal Lenti NF-κB Reporter; SABiosciences). 2.5×10^5 bone marrow-derived macrophages and 10^5 primary lung endothelial cells (isolated as previously described (Mazzone et al., 2009, see above)) were seeded in a 24-well plate in DMEM 10% FBS or M199 20% FBS for eight hours. Cells were transduced with 10^8 TU/ml. Eight hours after transduction, the medium wash was replaced. After 48 hours, cells were stimulated with TNFα (20 ng/mL) for eight hours and the same amount of protein extract was read in a luminometer. For PHD3 silencing, siRNA oligonucleotides were designed using the Invitrogen online siRNA design tool (world wide web at maidesigner.invitrogen.com). The following sequences (sense strands) and target positions were used: PHD3 siRNA: 5′-[…]-3′ (SEQ ID NO:1); scramble siRNA:5′-[…]-3′ (SEQ ID NO:2). In brief, one day after the transduction of macrophages with LV, cells were transfected using Lipofectamine 2000 (Invitrogen) according to the manufacturer's instructions. Preparation of the oligonucleotide-Lipofectamine 2000 complexes was done as followed: 25 pmol siRNA oligonucleotide (stock: 20 μM) was diluted in 50 μl Opti-MEM I reduced serum medium. […]

[3] = early clinical trials in myocardial infarction; cited from earlier work
PDGFB, SDF1, and Tie2 = assay: Gene expression (qRT-PCR) in PHD2Rosa26CreERT;lox/wt peritoneal macrophages after 4-OHT; format: cell-based, mice; conditions: 2 μM, 48 hours
Protocol: Macrophage Preparation: To harvest peritoneal macrophages (pMØ), the peritoneal cavity was washed with 5 ml of RPMI 10% FBS. The pooled cells were then seeded in RPMI 10% FBS in six-well plates (2×10^6 cells/well), twelve-well plates (1×10^6 cells/well), or 24-well plates (5×10^5 cells/well). After six hours of incubation at 37° C. in a moist atmosphere of 5% CO2 and 95% air, non-adhering cells on each plate were removed by rinsing with phosphate-buffered saline (PBS). The attached macrophages were cultured in different mediums for 12 hours or 48 hours, depending on the experiments performed, as described below. When high amounts of cells were needed (analysis for HIF accumulation and NF-κB activity), macrophages were derived from bone marrow precursors as described before (Meerpohl et al., Eur. J. Immuno. 6:213-7, 1976). Briefly, bone marrow cells (2×10^6 cells/ml) were cultured in a volume of 5 ml in a 10 cm Petri dish (non-tissue culture-treated, bacterial grade) for ten days in DMEM supplemented with 20% FBS and 30% L929 conditioned medium as a source of M-CSF. The cells obtained in those cultures are uniformly macrophages. […]
Quantitative PCR Analysis: In order to investigate gene expression in pMØ, quantitative RT-PCR (qRT-PCR) was performed. […] Quantitative RT-PCR was perfouned with commercially available or homemade primers and probes for the studied genes. […]

F4/80+Tie2+ cells = assay: Deletion of TEMs by GCV in Tie2:tk-BMT mice (F4/80 and Tie2 double staining of adductor); format: in vivo; conditions: GCV 50 mg/kg daily
[4] = test system: secondary and tertiary collateral arteries; assay: Collateralization and ischemic necrosis in Tie2:tk-BMT mice after GCV; format: in vivo; conditions: PHD2+/- Tie2:tk-BMT mice
Tie2, PDGFB and SDF1 = assay: Expression of PDGFB, SDF1 and Tie2 (qPCR) in monocytes/macrophages upon angiopoietin-1; format: cell-based, mice; conditions: monocytes/macrophages after angiopoietin-1 stimulation (50 and 250 ng/ml)
Protocol: (§1) Quantitative PCR Analysis: In order to investigate gene expression in pMØ, quantitative RT-PCR (qRT-PCR) was performed. After preparing pMØ, the cells were cultured in normoxic condition for twelve hours, and the RNA was extracted. To analyze the gene profile of adductor, gastrocnemius, and soleus muscle, tissues were collected at baseline or 24 hours/72 hours post-ischemia and RNA was extracted. Macrophages and ECs were freshly sorted from dissected adductors as described below and RNA was extracted. Quantitative RT-PCR was perfouned with commercially available or homemade primers and probes for the studied genes. The assay ID (Applied Biosystems, Foster City, Calif.) or the sequence of primers and probes (when homemade) are listed in Table 5. RNA levels of Tie-2, SDF1 and PDGFB after inhibition of NF-κB pathway were measured by qRT-PCR on pMØ exposed for twelve hours to 500 nM 6-amino-4-(4-phenoxyphenylethylamino)quinazoline. To evaluate PHD2 levels on monocyte/macrophage cultures, 2.5×10^5 bone marrow-derived monocytes/macrophages (see above) were seeded in a 24-well plate in DMEM 10% FBS and stimulated with 50 ng/ml angiopoietin-1 (Peprotech) or 50 ng/ml angiopoietin-2 (Prospec). After 24 hours, cells were harvested for RNA extraction and cDNA preparation.

PHD2 = PHD2 expression (qPCR) in bone marrow-derived monocyte/macrophage cultures upon cytokine stimulation; format: cell-based, mice
Protocol: as §1, with “To evaluate PHD2 levels on monocyte/macrophage cultures, 2.5×10^5 bone marrow-derived monocytes/macrophages (see above) were seeded in a 24-well plate in DMEM 10% FBS and stimulated with 50 ng/ml angiopoietin-1 (Peprotech) or 50 ng/ml angiopoietin-2 (Prospec).” left out

In the case of TNF-α, the “TNF-α-induced NF-κB activation” value (NF-κB [1]) is reported as “significantly stronger” and the NF-κB activity (NF-κB [2]) is reported as “increases to the same level”.

In the case of `C[C@H]1C[C@@H]2[C@H]([C@@H](O)C[C@@]3(C)[C@H]2CC[C@]3(O)C(=O)CO)[C@@]2(C)C=CC(=O)C=C12` [methylprednisolone], the “mortality due to left ventricle rupture” value [3] is listed as “drastically increased mortality”.

With 4-hydroxytamoxifen the “expression of PDGFB, SDF1, and Tie2” value (PDGFB, SDF1, and Tie2) was “increased expression”.

For `Nc1nc(O)c2ncn(COC(CO)CO)c2n1` [GCV, ganciclovir], the “reduction of density of F4/80+Tie2+ cells” value (“reduction” below) (F4/80+Tie2+ cells; PHD2+/- Tie2:tk-BMT mice, 72 hours post-ischemia) was 68±5%, the “reduction” value (F4/80+Tie2+ cells; PHD2+/- Tie2:tk-BMT mice, baseline) was 58±11% and the “reduction” value (F4/80+Tie2+ cells; WT Tie2:tk-BMT mice, 72 hours post-ischemia) was 39±6%. The “reduction” value (F4/80+Tie2+ cells; WT Tie2:tk-BMT mice, baseline) was 46±10%, the “ischemic protection (fiber necrosis)” value ([4]; 72 hours after ligation) was “abolished ischemic protection” and the “formation of secondary and tertiary collateral arteries” value ([4]; baseline, vs untreated group) was “completely prevented”.

B1: angiopoietin-1: Tie2 ligand cytokine (Peprotech) (protein, UniProt Q15389 16-498, looked up)
Angiopoietin-1: HIGCSNQRRSPENSGRRYNRIQHGQCAYTFILPEHDGNCRESTTDQYNTNALQRDAPHVEPDFSSQKLQHLEHVMENYTQWLQKLENYIVENMKSEMAQIQQNAVQNHTATMLEIGTSLLSQTAEQTRKLTDVETQVLNQTSRLEIQLLENSLSTYKLEKQLLQQTNEILKIHEKNSLLEHKILEMEGKHKEELDTLKEEKENLQGLVTRQTYIIQELEKQLNRATTNNSVLQKQQLELMDTVHNLVNLCTKEGVLLKGGKREEEKPFRDCADVYQAGFNKSGIYTIYINNMPEPKKVFCNMDVNGGGWTVIQHREDGSLDFQRGWKEYKMGFGNPSGEYWLGNEFIFAITSQRQYMLRIELMDWEGNRAYSQYDRFHIGNEKQNYRLYLKGHTGTAGKQSSLILHGADFSTKDADNDNCMCKCALMLTGGWWFDACGPSNLNGMFYTAGQNHGKLNGIKWHYFKGPSYSLRSTTMMIRPLDF
With B1 the “expression of Tie2, PDGFB and SDF1” value (Tie2, PDGFB and SDF1) was “increased expression”, the “PHD2 levels down-regulated, dose-dependent, up to” value (PHD2; WT monocytes/macrophages) was 50 % of the basal levels and the “PHD2 down-modulation in monocytes/macrophages” value (PHD2; after angiopoietin-1 stimulation) was 40%.
